The test system of one experiment is ALS patients. The following applies: cited from earlier work.
Experiment [1] concerns G93A amyotrophic lateral sclerosis model mice. Nature of the experiment: Butyrate treated mice model: oral sodium butyrate in drinking water, body weight and survival. The class given is in vivo, mouse. From the text:
Nine G93A mice were divided into a […] (n=4) and a butyrate group (n=5). Butyrate mice started to drink 2% sodium butyrate in the drinking water bottle from age 63 days, without treatment mice drank regular water mice. Without treatment mice died on day 127, 133, 143, 155 separately.
Mice were divided into control and butyrate group. Butyrate group mice were given 2% sodium butyrate (Sigma, St. Louis, Mo.) water ad libitum from age 63 days. The untreated control group was maintained on tap water throughout the experiment. Without treatment mice died on day 127, 133, 143, 155 separately.

“Also recorded” adds a separate entry of the source.

With `Nc1nc2ccc(OC(F)(F)F)cc2s1` [Riluzole], the patient life span entry in the experiment with ALS patients (FDA approved treatment) is given as “extends patient life span for only a few months”. For the same compound, in the experiment on ALS patients, the relief of symptoms entry is “does not relieve symptoms”.
As for `CCCC(=O)[O-].[Na+]` [sodium butyrate], in experiment [1] (2% sodium butyrate in drinking water ad libitum from age 63 days, n=5, vs untreated G93A mice n=4 (FIG. 4A)), the body weight loss result was “prevents body weight loss”. In addition, the “additional survival time of butyrate mice” value in experiment [1] (2% sodium butyrate in drinking water from age 63 days, relative to untreated mice that died on day 127-155) is reported as “survived at least one additional month or longer”. The survival result in experiment [1] (2% sodium butyrate in drinking water from age 63 days, untreated mice died on day 127, 133, 143, 155 (FIG. 4B)) was “extends survival time; also recorded: All the butyrate mice survived”.

These data come from patent US11141391B2, “Biomarkers for risk assessment, diagnosis and target microbiome and intestinal homeostasis for prevention and treatment of amyotrophic lateral sclerosis” (Rush University Medical Center, priority 2014, dated 2021).
